Reference: PMC8288134, “Synthesis, potential antitumor activity, cell cycle analysis, and multitarget mechanisms of novel hydrazones incorporating a 4-methylsulfonylbenzene scaffold: a molecular docking study” (Journal of Enzyme Inhibition and Medicinal Chemistry, 2021)
Read-outs that look alike come from different tables or passages of the source.

What was measured:
[1] = system: NCI-H522; experiment: NCI antitumor screen (SRB); format: cell-based; settings: Homo sapiens
[2] = system: DU-145; experiment: NCI antitumor screen (SRB); format: cell-based; settings: Homo sapiens, one dose 10 µM, read-out: Growth inhibition percentage (GI%)
[3] = system: MDA-MB-435; experiment: NCI antitumor screen (SRB); format: cell-based; settings: Homo sapiens, one dose 10 µM, read-out: Growth inhibition percentage (GI%)
[4] = system: HOP-62; experiment: NCI antitumor screen (SRB); format: cell-based; settings: Homo sapiens
[5] = system: A549/ATCC; experiment: NCI antitumor screen (SRB); format: cell-based; settings: Homo sapiens, one dose 10 µM, read-out: Growth inhibition percentage (GI%)
[6] = system: U251; experiment: NCI antitumor screen (SRB); format: cell-based; settings: Homo sapiens, U-251, one dose 10 µM, read-out: Growth inhibition percentage (GI%)
[7] = system: LOX IMVI; experiment: NCI antitumor screen (SRB); format: cell-based; settings: Homo sapiens, one dose 10 µM, read-out: Growth inhibition percentage (GI%)
[8] = system: BT-549; experiment: NCI antitumor screen (SRB); format: cell-based; settings: Homo sapiens, one dose 10 µM, read-out: Growth inhibition percentage (GI%)
[9] = system: ovarian cancer tumour cell lines; settings: cited from earlier work
[10] = system: SK-OV-3; experiment: NCI antitumor screen (SRB); format: cell-based; settings: Homo sapiens, one dose 10 µM, read-out: Growth inhibition percentage (GI%)
[11] = system: NCI-H226; experiment: NCI antitumor screen (SRB); format: cell-based; settings: Homo sapiens, one dose 10 µM, read-out: Growth inhibition percentage (GI%)
[12] = system: K-562; experiment: NCI antitumor screen (SRB); format: cell-based; settings: Homo sapiens
[13] = system: UACC-257; experiment: NCI antitumor screen (SRB); format: cell-based, human; settings: Homo sapiens; UACC-257; one dose 10 µM; read-out: Growth inhibition percentage (GI%)
[14] = system: SF-295; experiment: NCI antitumor screen (SRB); format: cell-based; settings: Homo sapiens, one dose 10 µM, read-out: Growth inhibition percentage (GI%)
[15] = system: SK-MEL-5; experiment: NCI antitumor screen (SRB); format: cell-based, human; settings: Homo sapiens; SK-MEL-5; one dose 10 µM; read-out: Growth inhibition percentage (GI%)
[16] = system: HT29; experiment: NCI antitumor screen (SRB); format: cell-based; settings: Homo sapiens, HT-29, one dose 10 µM, read-out: Growth inhibition percentage (GI%)
[17] = system: NCI-H23; experiment: NCI antitumor screen (SRB); format: cell-based; settings: Homo sapiens, one dose 10 µM, read-out: Growth inhibition percentage (GI%)
[18] = system: NCI/ADR-RES; experiment: NCI antitumor screen (SRB); format: cell-based; settings: Homo sapiens, one dose 10 µM, read-out: Growth inhibition percentage (GI%)
[19] = system: MDA-MB-468; experiment: NCI antitumor screen (SRB); format: cell-based; settings: Homo sapiens, one dose 10 µM, read-out: Growth inhibition percentage (GI%)
[20] = system: HL60 cells; experiment: Cell cycle analysis (PI, flow cytometry); format: cell-based, human; settings: HL60, 10.0 µM, 24 h
Method: Antitumor agents can induce apoptosis by activating signalling pathways, leading to G2/M phase arrest[73]^,[74]. Flow cytometry is used to measure cell growth in different cell cycle phases (pre-G1, G1, S, and G2/M)[73]^,[74]. […]. We used the solvent DMSO as a negative control. Briefly, we incubated HL60 cells with 10 µM compounds 6, 9, 16, and 20 for 24 h. Compounds 6, 9, 16, and 20 interfered with the normal cell cycle of HL60 cells. […] […].
Cell cycle analysis was carried out similar to our previous report using the Leukaemia HL-60 cell line stained with the DNA fluorochrome PI and analysed by FACSCalibur flow cytometer[40]^,[74].
Using a method similar to that of our previous report, cell cycle analysis was carried out using Leukemia HL-60 cell line, stained with the DNA fluorochrome PI, and analyzed by FACSCalibur flow cytometer. Leukemia HL-60 cell was seeded at a density of 2 × 10^5 cells/well and incubated for 24 h in six-well plates. Fetal bovine serum (10%) was added, and the cells were incubated at 37°C in an atmosphere of 5% CO2. The medium was replaced with 1% (v/v) dimethyl sulfoxide (DMSO), containing 10.0 μM of compound 9. […]
Afterward, […]
the samples were analyzed using a FACSCalibur flow cytometer. […]
(AA) to PGH2. […]

[21] = HOP-62, one dose 10 µM, read-out: Growth inhibition percentage (GI%)
[22] = NCI-H522, read-out: Growth inhibition percentage (GI%)
[23] = HOP-62, read-out: Growth inhibition percentage (GI%)
[24] = K562, read-out: Growth inhibition percentage (GI%)

Compound | inhibition at 10 µM [2] [%] | inhibition at 10 µM [3] [%] | inhibition at 10 µM [5] [%] | inhibition at 10 µM [6] [%] | inhibition at 10 µM [7] [%] | inhibition at 10 µM [8] [%] | inhibition at 10 µM [10] [%] | inhibition at 10 µM [11] [%] | inhibition at 10 µM [13] [%] | inhibition at 10 µM [14] [%] | inhibition at 10 µM [15] [%] | inhibition at 10 µM [16] [%] | inhibition at 10 µM [17] [%] | inhibition at 10 µM [18] [%] | inhibition at 10 µM [1, 22] [%] | inhibition at 10 µM [19] [%] | %G0-G1 [20] [%] | %G2-M [20] [%] | %Pre-G1 [20] [%] | %S [20] [%] | other results
O=c1[nH]cc(F)c(=O)[nH]1 [Compound 5-Fu, 5-fluorouracil, reference compound] | 64.5 | 63.4 | 65.8 | 49.7 | 69.6 | 62.2 | 22.5 | 30.5 | 80.5 | 30.9 | 66.3 | 72.9 | 61 | 52.4 |  |  |  |  |  |  | inhibition at 10 µM ([1]; NCI-H522, one dose 10 µM, read-out: Growth inhibition percentage (GI%)): 42%; inhibition at 10 µM [4, 21]: 52.2%; GI50 ([9]; read-out: GI50 (subpanel average), reference drugs, ref https://dtp.cancer.gov/dtpstandard/dwindex/index.jsp): 5.17 µM; CC50 ([9]; read-out: LC50 (subpanel average), reference drugs, ref https://dtp.cancer.gov/dtpstandard/dwindex/index.jsp): 92.9 µM; TGI (subpanel average) ([9]; reference drugs, ref https://dtp.cancer.gov/dtpstandard/dwindex/index.jsp): 38.36 µM; inhibition at 10 µM ([12]; K562, K-562, one dose 10 µM, read-out: Growth inhibition percentage (GI%)): 57.7%
CS(=O)(=O)c1ccc(C(=O)NN=Cc2cccc3ccccc23)cc1 [Compound 6, 4-(Methylsulfonyl)-N'-(naphthalen-1-ylmethylene)benzohydrazide] | 11.2 | 82.9 | 58.7 | 23.7 | 27.6 | 12.4 | 21.9 | 16.3 | 58.9 | 24 | 32.8 | 50.5 | 10.4 | 26.5 | 95.5 | 25.8 | 48.31 | 23.27 | 12.57 | 28.42 | inhibition at 10 µM [4, 23]: 25.1%; inhibition at 10 µM [12, 24]: 72.2%
Cc1ccc(C=NNC(=O)c2ccc(S(C)(=O)=O)cc2)cc1 [Compound 9, N'-(4-Methylbenzylidene)-4-(methylsulfonyl)benzohydrazide] | < 10 | 47.5 | 12.7 | 13.7 | < 10 | < 10 | < 10 | < 10 | 28.4 | < 10 | 13.5 | 17.7 | < 10 | 14.6 | 53.9 | 21.5 | 43.15 | 29.44 | 16.89 | 27.41 | inhibition at 10 µM [4, 21]: < 10%; inhibition at 10 µM [12, 24]: 44.1%
CS(=O)(=O)c1ccc(C(=O)N/N=C/c2ccccc2O)cc1 [Compound 16] | 59.6 | 40.3 | 61.2 | 72.2 | 78.6 | 47 | 60.1 | 44.8 | 77.4 | 62 | 67.8 | 56.4 | 45.2 | 70.1 | 84.9 | 35.3 | 39.42 | 38.09 | 22.41 | 22.49 | inhibition at 10 µM [4, 23]: 71.8%; inhibition at 10 µM [12, 24]: 59.5%
